{
  "source": "ChEMBL document CHEMBL1148128",
  "about": "“Clathriol, a novel polyoxygenated 14beta steroid isolated from the New Zealand marine sponge Clathria lissosclera” (J Nat Prod, 2002)",
  "key": {"[1]": {"experiment": "Antiinflammatory in rat peritoneal mast cell assessed as inhibition of histamine release", "format": "functional, cell-based"}, "[2]": {"experiment": "Antiinflammatory in rat peritoneal mast cell assessed as inhibition of histamine release at 30 uM", "format": "functional", "set-up": "scale not given: the % may be the effect or the level left"}, "[3]": {"tested_on": "PBMC", "experiment": "Inhibition of PMA or fMLP-induced human PBMC activation assessed as superoxide production at 30 uM", "format": "functional", "set-up": "scale not given: the % may be the effect or the level left"}},
  "data": [
    {"smiles": "CC(C)[C@@H]1CC(O)O[C@H](C(C)[C@H]2CC(=O)[C@H]3[C@@H]4[C@@H](O)[C@H](O)[C@H]5[C@@H](O)[C@H](O)CC[C@]5(C)[C@H]4CC[C@]23C)C1", "note": "(stereo partly drawn)", "values": [
      {"measurement": "IC50", "setting": "[1]", "value": 800, "unit": "nM"}
    ]},
    {"smiles": "CC(C)C(CCC(C)[C@H]1CC(=O)[C@H]2[C@@H]3[C@@H](O)[C@H](O)[C@H]4C[C@@H](O)CC[C@]4(C)[C@H]3CC[C@]12C)C(C)O", "note": "(stereo partly drawn)", "values": [
      {"measurement": "Activity", "setting": "[2]", "value": 72, "unit": "%"},
      {"measurement": "Activity", "setting": "[3]", "value": 76, "unit": "%"}
    ]}
  ]
}
